Test results reported in ChEMBL document CHEMBL1140561, “A phosphorylated prodrug for the inhibition of Pin1” (Bioorg Med Chem Lett, 2007).

Experiments:
[1] = molecular target: Peptidyl-prolyl cis-trans isomerase NIMA-interacting 1 (Homo sapiens, UniProt Q13526); assay: Inhibition of Pin1 PPIase activity
A2780 = assay: Antiproliferative activity against human A2780 cells; assay type: functional, cell-based

Sequence of Peptidyl-prolyl cis-trans isomerase NIMA-interacting 1 (Q13526 whole entry): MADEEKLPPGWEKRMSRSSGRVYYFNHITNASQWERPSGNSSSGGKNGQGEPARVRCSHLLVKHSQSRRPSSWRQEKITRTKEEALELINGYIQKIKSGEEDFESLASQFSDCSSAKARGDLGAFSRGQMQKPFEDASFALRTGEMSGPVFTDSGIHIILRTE

Row | IC50 [1] | IC50 (A2780) | Structure (SMILES)
1 | 28.3 µM | 46.2 µM | O=C(N[C@H](/C=C1\CCC[C@H]1C(=O)NCCc1c[nH]c2ccccc12)COP(=O)(O)O)OCC1c2ccccc2-c2ccccc21
2 |  | 26.9 µM | CC(C)(C)C(=O)OCOP(=O)(OCOC(=O)C(C)(C)C)OC[C@@H](/C=C1\CCC[C@H]1C(=O)NCCc1c[nH]c2ccccc12)NC(=O)OCC1c2ccccc2-c2ccccc21
